These results are taken from ChEMBL document CHEMBL4152312, “Identification of fused pyrimidines as interleukin 17 secretion inhibitors” (Eur J Med Chem, 2018).

In assay [1] the target is Serine/threonine-protein kinase mTOR (Homo sapiens) (UniProt P42345). The assay is described as follows: Inhibition of recombinant human GST-tagged mTOR cytoplasmic domain (1360 to 2549 residues) expressed in baculovirus expression system at 500 nM by Z-LYTE assay relative to control.
The target of assay [2] is PI3-kinase p110-delta/p85-alpha (Homo sapiens) (UniProt P27986+O00329). The assay is described as follows: Inhibition of PI3K p110delta/p85alpha (unknown origin) at 500 nM by Z-LYTE assay relative to control. Format: protein-complex assay.
For assay [3], the target named is Serine/threonine-protein kinase pim-1 (Homo sapiens) (UniProt P11309). The assay can be described thus: Inhibition of recombinant full length human His-tagged PIM1 expressed in baculovirus expression system at 500 nM by Z-LYTE assay relative to control.
Assay [4] deals with Calcium/calmodulin-dependent protein kinase type 1G (Homo sapiens) (UniProt Q96NX5). The assay is described as follows: Inhibition of recombinant human full length GST-tagged CAMK1G expressed in insect cells at 500 nM by Z-LYTE assay relative to control.
Assay [5] concerns the target Hepatocyte growth factor receptor (Homo sapiens) (UniProt P08581). The assay can be described thus: Inhibition of recombinant truncated human His-tagged MET expressed in mammalian expression system at 500 nM by Z-LYTE assay relative to control.
Assay [6] deals with Mitogen-activated protein kinase 3 (Homo sapiens) (UniProt P27361). The assay can be described thus: Inhibition of recombinant human full length GST-tagged ERK1 expressed in Escherichia coli at 500 nM by Z-LYTE assay relative to control.
The target of assay [7] is Tyrosine-protein kinase BTK (Homo sapiens) (UniProt Q06187). The assay is described as follows: Inhibition of recombinant human full length His-tagged BTK expressed in baculovirus expression system at 500 nM by Z-LYTE assay relative to control.
Chain of Tyrosine-protein kinase BTK (Homo sapiens) (Q06187 whole entry): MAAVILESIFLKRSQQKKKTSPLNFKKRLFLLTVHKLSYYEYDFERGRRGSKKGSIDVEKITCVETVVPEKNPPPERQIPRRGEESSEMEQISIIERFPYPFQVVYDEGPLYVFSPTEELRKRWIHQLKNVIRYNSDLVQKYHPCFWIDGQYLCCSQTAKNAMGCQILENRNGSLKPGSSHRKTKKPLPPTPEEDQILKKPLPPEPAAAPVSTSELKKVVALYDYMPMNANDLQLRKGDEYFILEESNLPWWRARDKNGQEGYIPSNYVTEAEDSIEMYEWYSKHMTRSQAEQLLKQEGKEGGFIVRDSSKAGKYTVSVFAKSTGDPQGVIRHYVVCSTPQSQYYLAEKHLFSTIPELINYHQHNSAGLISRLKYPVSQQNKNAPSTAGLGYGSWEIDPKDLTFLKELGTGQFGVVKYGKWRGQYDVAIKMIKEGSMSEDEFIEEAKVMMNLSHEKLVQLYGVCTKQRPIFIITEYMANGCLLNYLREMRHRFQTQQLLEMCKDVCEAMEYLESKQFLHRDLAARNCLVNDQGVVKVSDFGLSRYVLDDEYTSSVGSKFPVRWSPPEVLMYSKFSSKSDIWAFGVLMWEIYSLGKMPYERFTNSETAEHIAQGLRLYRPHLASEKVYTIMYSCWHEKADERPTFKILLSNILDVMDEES
Assay [8] addresses Tyrosine-protein kinase Lyn (Homo sapiens) (UniProt P07948). The assay is described as follows: Inhibition of recombinant human full-length N-terminal GST-tagged LYN-A expressed in insect cells at 500 nM by Z-LYTE assay relative to control.
Assay [9] has as its target PI3K p110 beta/p85 alpha (Homo sapiens) (UniProt P27986+P42338). The assay can be described thus: Inhibition of PI3K p110beta/p85alpha (unknown origin) at 500 nM by Z-LYTE assay relative to control. It counts as protein-complex assay.
A further assay deals with PBMC. The assay can be described thus: Inhibition of IL-17 secretion in anti-human CD3 antibody/anti-human CD28 antibody/IL23-stimulated human PBMC after 48 hrs by ELISA. Format: functional, cell-based. On the technique in general: In an ELISA, binding on a coated surface is turned into a signal by an enzyme label.
The target in assay [10] is Protein kinase C beta type (Homo sapiens) (UniProt P05771). The assay is described as follows: Inhibition of recombinant full length human GST-tagged PKCbeta-1 expressed in insect cells at 500 nM by Z-LYTE assay relative to control.
Assay [11] has as its target Mitogen-activated protein kinase 14 (Homo sapiens) (UniProt Q16539). The assay can be described thus: Inhibition of recombinant human full length His-tagged p38-alpha expressed in baculovirus expression system at 500 nM by Z-LYTE assay relative to control.
Assay [12] deals with Serine/threonine-protein kinase PAK 2 (Homo sapiens) (UniProt Q13177). The assay can be described thus: Inhibition of recombinant human full length GST-tagged PAK2 expressed in baculovirus expression system at 500 nM by Z-LYTE assay relative to control.
Chain of Serine/threonine-protein kinase PAK 2 (Homo sapiens) (Q13177 whole entry, the tested form may be a part): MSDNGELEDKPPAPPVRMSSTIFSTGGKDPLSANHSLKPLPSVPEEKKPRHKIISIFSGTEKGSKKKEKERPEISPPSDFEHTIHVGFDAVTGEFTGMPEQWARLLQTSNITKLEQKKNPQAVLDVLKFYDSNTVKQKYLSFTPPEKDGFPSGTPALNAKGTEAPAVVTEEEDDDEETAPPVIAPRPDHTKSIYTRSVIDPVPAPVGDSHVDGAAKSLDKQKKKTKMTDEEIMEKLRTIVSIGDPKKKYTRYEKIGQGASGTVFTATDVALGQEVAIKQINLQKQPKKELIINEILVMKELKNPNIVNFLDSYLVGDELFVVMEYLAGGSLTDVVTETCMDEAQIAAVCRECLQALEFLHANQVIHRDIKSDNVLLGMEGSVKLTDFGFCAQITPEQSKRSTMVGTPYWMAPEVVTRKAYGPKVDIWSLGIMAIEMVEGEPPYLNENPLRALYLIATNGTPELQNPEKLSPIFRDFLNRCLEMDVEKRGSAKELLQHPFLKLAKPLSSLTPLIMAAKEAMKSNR
In assay [13] the target is Proto-oncogene tyrosine-protein kinase ROS (Homo sapiens) (UniProt P08922). The assay can be described thus: Inhibition of recombinant human GST-tagged ROS1 cytoplasmic domain (1883 to 2347 residues) expressed in baculovirus expression system at 500 nM by Z-LYTE assay relative to control.
Assay [14] deals with Receptor-type tyrosine-protein kinase FLT3 (Homo sapiens) (UniProt P36888). The assay can be described thus: Inhibition of recombinant human His-tagged FLT3 cytoplasmic domain (564 to 958 residues) expressed in baculovirus expression system at 500 nM by Z-LYTE assay relative to control.
Chain of Receptor-type tyrosine-protein kinase FLT3 (Homo sapiens) (P36888 whole entry, the tested form may be a part): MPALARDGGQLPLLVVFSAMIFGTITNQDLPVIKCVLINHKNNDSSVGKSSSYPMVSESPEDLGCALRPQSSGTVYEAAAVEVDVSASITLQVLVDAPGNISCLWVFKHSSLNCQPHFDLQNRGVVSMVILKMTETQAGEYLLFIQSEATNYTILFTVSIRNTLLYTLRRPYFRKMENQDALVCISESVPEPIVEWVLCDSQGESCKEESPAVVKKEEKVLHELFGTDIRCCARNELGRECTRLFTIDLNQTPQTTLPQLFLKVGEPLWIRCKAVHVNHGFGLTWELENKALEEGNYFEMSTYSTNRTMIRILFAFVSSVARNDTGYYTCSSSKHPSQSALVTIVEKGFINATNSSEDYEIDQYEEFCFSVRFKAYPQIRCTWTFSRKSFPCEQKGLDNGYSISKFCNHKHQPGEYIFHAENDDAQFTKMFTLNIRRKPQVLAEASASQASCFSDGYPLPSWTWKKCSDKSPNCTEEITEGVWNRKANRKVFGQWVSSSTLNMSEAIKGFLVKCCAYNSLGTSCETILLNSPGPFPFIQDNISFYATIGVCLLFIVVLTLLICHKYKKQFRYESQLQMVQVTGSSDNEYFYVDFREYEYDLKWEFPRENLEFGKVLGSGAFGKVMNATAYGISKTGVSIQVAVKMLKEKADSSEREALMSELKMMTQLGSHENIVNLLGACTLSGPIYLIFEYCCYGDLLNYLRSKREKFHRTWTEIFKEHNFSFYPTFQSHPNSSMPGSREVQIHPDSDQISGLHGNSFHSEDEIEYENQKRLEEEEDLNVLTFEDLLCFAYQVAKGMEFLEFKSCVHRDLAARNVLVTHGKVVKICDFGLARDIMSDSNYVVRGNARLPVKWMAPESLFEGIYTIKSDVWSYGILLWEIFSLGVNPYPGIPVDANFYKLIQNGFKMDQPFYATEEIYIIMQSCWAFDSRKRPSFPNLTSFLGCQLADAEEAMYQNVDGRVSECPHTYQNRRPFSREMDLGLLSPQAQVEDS
Assay [15] concerns the target T1, Dual specificity mitogen-activated protein kinase kinase 6 (Homo sapiens) (UniProt P52564).
T1 sequence (whole entry): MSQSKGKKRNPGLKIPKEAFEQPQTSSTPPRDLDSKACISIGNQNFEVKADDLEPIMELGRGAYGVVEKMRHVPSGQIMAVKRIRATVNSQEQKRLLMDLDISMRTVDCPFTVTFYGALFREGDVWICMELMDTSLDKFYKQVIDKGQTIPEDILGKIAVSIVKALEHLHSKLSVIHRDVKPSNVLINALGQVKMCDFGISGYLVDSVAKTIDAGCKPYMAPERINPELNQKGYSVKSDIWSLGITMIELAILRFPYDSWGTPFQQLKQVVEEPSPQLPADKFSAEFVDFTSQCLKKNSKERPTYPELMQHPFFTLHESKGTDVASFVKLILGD
The assay can be described thus: Inhibition of recombinant human full length His-tagged MKK6 expressed in baculovirus expression system at 500 nM by Z-LYTE assay relative to control.

The target of assay [16] is Tyrosine-protein kinase JAK1 (Homo sapiens) (UniProt P23458). The assay is described as follows: Inhibition of recombinant human GST-tagged JAK1 cytoplasmic domain expressed in baculovirus expression system at 500 nM by Z-LYTE assay relative to control.
Assay [17] has as its target Mast/stem cell growth factor receptor Kit (Homo sapiens) (UniProt P10721). The assay can be described thus: Inhibition of recombinant human His-tagged KIT cytoplasmic domain (544 to 976 residues) expressed in baculovirus expression system at 500 nM by Z-LYTE assay relative to control.
For assay [18], the target named is Receptor tyrosine-protein kinase erbB-2 (Homo sapiens) (UniProt P04626). The assay can be described thus: Inhibition of recombinant human His-tagged ERBB2 cytoplasmic domain expressed in baculovirus expression system at 500 nM by Z-LYTE assay relative to control.
In assay [19] the target is Mitogen-activated protein kinase 11 (Homo sapiens) (UniProt Q15759). The assay is described as follows: Inhibition of recombinant human full length His-tagged p38-beta expressed in baculovirus expression system at 500 nM by Z-LYTE assay relative to control.
Chain of Mitogen-activated protein kinase 11 (Homo sapiens) (Q15759 whole entry): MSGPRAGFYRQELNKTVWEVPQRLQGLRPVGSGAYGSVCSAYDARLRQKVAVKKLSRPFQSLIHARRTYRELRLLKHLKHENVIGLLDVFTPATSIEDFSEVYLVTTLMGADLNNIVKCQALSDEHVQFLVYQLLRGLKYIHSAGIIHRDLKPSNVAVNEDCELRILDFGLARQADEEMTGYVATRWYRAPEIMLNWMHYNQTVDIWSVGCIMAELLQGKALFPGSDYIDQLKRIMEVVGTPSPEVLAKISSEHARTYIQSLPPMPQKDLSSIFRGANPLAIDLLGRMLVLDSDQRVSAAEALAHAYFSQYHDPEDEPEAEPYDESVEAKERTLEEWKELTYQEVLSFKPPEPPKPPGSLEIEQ
The target in assay [20] is Proto-oncogene tyrosine-protein kinase Src (Homo sapiens) (UniProt P12931). The assay is described as follows: Inhibition of human full length Src expressed in baculovirus expression system at 500 nM by Z-LYTE assay relative to control.

As a reminder, the inhibition is the relative decrease from the control value, in per cent. The term IC50 denotes the point on the concentration scale where inhibition reaches its midpoint.

Chain of Tyrosine-protein kinase Lyn (Homo sapiens) (P07948 2-512 limits assumed): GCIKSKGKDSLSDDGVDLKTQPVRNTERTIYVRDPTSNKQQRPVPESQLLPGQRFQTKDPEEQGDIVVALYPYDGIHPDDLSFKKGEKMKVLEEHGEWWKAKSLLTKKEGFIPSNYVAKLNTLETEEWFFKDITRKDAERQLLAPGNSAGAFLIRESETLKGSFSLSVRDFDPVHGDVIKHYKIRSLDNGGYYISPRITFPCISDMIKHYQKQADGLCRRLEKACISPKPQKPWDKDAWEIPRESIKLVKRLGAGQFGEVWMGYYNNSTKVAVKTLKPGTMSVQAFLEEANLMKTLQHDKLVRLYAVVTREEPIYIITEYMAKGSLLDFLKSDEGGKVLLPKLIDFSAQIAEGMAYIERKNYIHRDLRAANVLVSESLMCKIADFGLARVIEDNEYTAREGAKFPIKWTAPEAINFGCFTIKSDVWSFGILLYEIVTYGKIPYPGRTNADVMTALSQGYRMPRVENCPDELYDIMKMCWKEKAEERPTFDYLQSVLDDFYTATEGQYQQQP
Chain of PI3K p110 beta/p85 alpha (Homo sapiens) (P27986 2-724 limits assumed): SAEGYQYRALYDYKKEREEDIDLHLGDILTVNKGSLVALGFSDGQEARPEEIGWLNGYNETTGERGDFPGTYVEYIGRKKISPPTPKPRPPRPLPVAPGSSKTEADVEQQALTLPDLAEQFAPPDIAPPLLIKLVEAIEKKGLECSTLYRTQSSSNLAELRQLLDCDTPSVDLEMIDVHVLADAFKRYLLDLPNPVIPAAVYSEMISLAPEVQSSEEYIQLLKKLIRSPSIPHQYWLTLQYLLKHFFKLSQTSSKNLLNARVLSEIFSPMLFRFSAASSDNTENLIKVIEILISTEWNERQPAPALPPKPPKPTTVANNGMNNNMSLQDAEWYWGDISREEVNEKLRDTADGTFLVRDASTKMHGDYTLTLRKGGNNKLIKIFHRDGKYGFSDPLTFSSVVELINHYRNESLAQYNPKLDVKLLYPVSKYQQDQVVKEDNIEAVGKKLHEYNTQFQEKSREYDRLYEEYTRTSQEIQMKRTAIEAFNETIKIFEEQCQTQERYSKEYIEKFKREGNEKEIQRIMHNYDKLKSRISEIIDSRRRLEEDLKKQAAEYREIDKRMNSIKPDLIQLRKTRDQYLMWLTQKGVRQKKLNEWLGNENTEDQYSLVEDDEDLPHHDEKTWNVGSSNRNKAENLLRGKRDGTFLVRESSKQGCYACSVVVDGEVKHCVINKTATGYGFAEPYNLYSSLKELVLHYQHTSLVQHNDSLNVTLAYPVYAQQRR
Chain of PI3K p110 beta/p85 alpha (Homo sapiens) (P42338 whole entry partner): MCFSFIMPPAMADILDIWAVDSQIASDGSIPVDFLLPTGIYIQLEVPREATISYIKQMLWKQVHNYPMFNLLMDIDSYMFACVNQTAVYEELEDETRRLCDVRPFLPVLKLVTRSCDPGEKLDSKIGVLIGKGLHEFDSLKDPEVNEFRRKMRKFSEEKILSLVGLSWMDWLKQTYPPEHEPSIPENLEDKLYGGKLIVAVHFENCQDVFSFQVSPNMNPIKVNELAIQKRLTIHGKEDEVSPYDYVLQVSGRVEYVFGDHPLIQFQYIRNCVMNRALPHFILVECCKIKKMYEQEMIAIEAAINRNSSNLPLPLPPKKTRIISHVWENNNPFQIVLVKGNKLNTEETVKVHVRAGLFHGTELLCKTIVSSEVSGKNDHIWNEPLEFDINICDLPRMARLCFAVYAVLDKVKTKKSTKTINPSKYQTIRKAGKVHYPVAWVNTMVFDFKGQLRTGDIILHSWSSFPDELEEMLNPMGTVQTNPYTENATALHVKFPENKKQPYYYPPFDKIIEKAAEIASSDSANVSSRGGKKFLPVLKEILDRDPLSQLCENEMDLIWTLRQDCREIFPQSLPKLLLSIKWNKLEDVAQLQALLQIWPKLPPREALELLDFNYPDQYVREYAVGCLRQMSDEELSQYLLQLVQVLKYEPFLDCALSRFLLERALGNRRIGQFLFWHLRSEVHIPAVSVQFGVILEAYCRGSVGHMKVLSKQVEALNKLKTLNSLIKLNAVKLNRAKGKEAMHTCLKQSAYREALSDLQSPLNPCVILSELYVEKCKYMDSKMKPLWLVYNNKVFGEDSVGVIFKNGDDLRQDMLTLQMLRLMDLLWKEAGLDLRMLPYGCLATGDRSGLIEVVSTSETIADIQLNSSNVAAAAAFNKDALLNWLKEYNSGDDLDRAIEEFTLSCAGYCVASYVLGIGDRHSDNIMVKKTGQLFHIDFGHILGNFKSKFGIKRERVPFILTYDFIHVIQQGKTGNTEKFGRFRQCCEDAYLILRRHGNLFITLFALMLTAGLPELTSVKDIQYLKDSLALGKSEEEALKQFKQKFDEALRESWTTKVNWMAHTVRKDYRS

Take `OC[C@@H](Nc1ncnc2sc(-c3ccc(O)cc3)cc12)c1ccccc1`: the inhibition in assay [1] is 7%; in [2], 0%; in assay [3] it was 11%; in [4] it was 1%; in assay [5], 1%; in [6] it was 6%. The inhibition in [7] is 5%; in assay [8], 21%; in [9], 1%; in assay [10], -9%; in assay [11], 8%; in assay [12], 5%. Further, the inhibition in [13] is 23%; in assay [14], 16%; in [15], 11%; in assay [16], -2%; in [17], 15%; in assay [18], 30%. In [19], the inhibition was 4%. For the same molecule, the IC50 with PBMC amounted to 2.8 µM.

Turning to `CN(C)CCn1cc(-c2cccc(O)c2)c2c(N)ncnc21`, the inhibition in [1] stood at 14%; in assay [3], 9%; in assay [4], 1%; in assay [5], 4%; in assay [6], 0%; in assay [7], 62%. Moreover, the inhibition worked out at 55% in assay [20]; 28% in assay [8]; 12% in [9]; 8% in assay [10]; 8% in assay [11]; 6% in assay [12]. For the same molecule, the inhibition in [13] was 15%; in assay [14] it was 38%; in assay [15] it was 5%; in [16] it was 3%; in assay [17], -2%; in [18], 5%. In addition, the inhibition in [19] worked out at 2%. For the same molecule, the IC50 with PBMC was 1.2 µM.

In the case of `OCc1ccc(-c2cc3c(N[C@H](CO)c4ccccc4)ncnc3[nH]2)cc1`, the inhibition in assay [1] is 12%; in [2] it was 2%; in assay [3], 7%; in assay [4], 0%; in [5], 14%; in [6] it was 3%. The inhibition is 9% in assay [7]; 74% in [20]; 74% in [8]; 4% in [9]; -1% in assay [10]; 17% in [11]. For the same molecule, the inhibition in assay [12] was 5%; in assay [13] it was 71%; in assay [14], 43%; in assay [15], 3%; in assay [16], -1%; in assay [17], -1%. The inhibition in assay [18] was found to be 48%; in assay [19], 6%. Besides, inhibition in the assay on PBMC was half-maximal at 1.4 µM (IC50).

As for `CCC(=O)Nc1ccc(-c2c[nH]c3ncnc(N[C@H](C)c4ccccc4)c23)cc1`, the inhibition in [1] was determined as 11%; in [2], 13%; in assay [3], 1%; in [4], 1%; in assay [5], 6%; in assay [6], 0%. The inhibition in [7] was found to be 3%; in [20], 16%; in assay [8], 14%; in assay [9] it was 11%; in [10] it was 14%; in [11], 3%. Further, the inhibition in assay [12] is 5%; in assay [13], 22%; in assay [14], 42%; in [15], 8%; in assay [16], 3%; in assay [17], -3%. Further, the inhibition in assay [18] was 41%; in [19], 2%. In the assay with PBMC, this molecule displayed an IC50 of 2.1 µM.
